Experimental data from US20260240851A1, “Treatment of Parkinson's Disease in a Patient Using a Glucocerebrosidase Activator” (BIAL - R&D Investments, S.A., priority 2023, published 2026).
Read-outs that look alike come from different tables or passages of the source. Blank lines part the entries; values can stand above or below the compound they belong to.

Key:
[1] = both, human, in vivo
[2] = BIA 28-6156-107 DDI: effect of single-dose Compound A on single-dose PK of carbidopa-levodopa; conditions: both, human, in vivo, oral; for Tmax: Median Tmax, carbidopa
[3] = BIA 28-6156-105: safety and tolerability; conditions: 400 mg moxifloxacin
[4] = BIA 28-6156-105: continuous cardiac monitoring, concentration-QTc analysis; conditions: 400 mg moxifloxacin, positive control
[5] = BIA 28-6156-110 DDI, rosuvastatin portion; assay type: in vivo, human
Protocol: In Cohort 1, a single oral dose of 10 mg rosuvastatin was administered alone on Day 1. No drug was administered on Day 2. From Day 3 to Day 8, a single daily dose of 60 mg Compound A was administered.

[6] = BIA 28-6156-110 DDI, metformin portion; assay type: in vivo, human
Protocol: In Cohort 2, a single oral dose 500 mg metformin was administered alone on Day 1. From Day 2 to Day 7, a single daily dose of 60 mg Compound A was administered.

[7] = Parkinson's patients with a GBA-1 mutation; Peterschmitt et al., 2021; cited from earlier work
[8] = both, human, in vivo; remark: listed apart in the source
Protocol: (§1) This was a Phase 1, non-randomized, open-label, 2-cohort, cross-over, DDI study in healthy male and female subjects.
(§2) In Cohort 1, a single oral dose 100 mg/25 mg levodopa-carbidopa (Sinemet®) IR was administered alone on Day 1.

[9] = both, human, in vivo; remark: listed apart in the source
Protocol: as §1
(§3) In Cohort 2, a single oral dose 100 mg/25 mg levodopa-benserazide (Madopar®) IR was administered alone on Day 1.

clinical [10] = conditions: both, human, in vivo, geometric mean t1/2
clinical [11] = conditions: both, human, in vivo
Protocol: as §1, §2

clinical [12] = conditions: both, human, in vivo; remark: listed apart in the source
Protocol: as §1, §3

[13] = 10 mg rosuvastatin + Compound A (60 mg daily) vs rosuvastatin alone
[14] = 500 mg metformin + Compound A (60 mg daily) vs metformin alone

AUC0-inf ratio of geometric least squares mean, estimate [5, 13]: 3.041
AUC0-t ratio of geometric least squares mean, estimate [5, 13]: 3.437
Cmax ratio of geometric least squares mean, estimate [5, 13]: 3.467
increase of rosuvastatin PK ([5]; with Compound A vs alone): about 3 fold
increased maximal exposure to rosuvastatin, Cmax ([5]; with Compound A vs alone): 347%
increased systemic exposure to rosuvastatin, AUC0-inf ([5]; with Compound A vs alone): 304%
increased systemic exposure to rosuvastatin, AUC0-t ([5]; with Compound A vs alone): 344%
SMILES: CC(C)c1nc(N(C)S(C)(=O)=O)nc(-c2ccc(F)cc2)c1/C=C/[C@@H](O)C[C@@H](O)CC(=O)O [rosuvastatin]

AUC0-inf ratio of geometric least squares mean, estimate [6, 14]: 0.940
AUC0-t ratio of geometric least squares mean, estimate [6, 14]: 0.938
Cmax ratio of geometric least squares mean, estimate [6, 14]: 0.950
effect of multiple oral doses of Compound A on metformin PK ([6]; single oral dose of metformin): no effect
SMILES: CN(C)C(=N)N=C(N)N [metformin]

Second part, the compound before the results:

SMILES: C[C@@](Cc1ccc(O)c(O)c1)(NN)C(=O)O [carbidopa]
AUC0-last ratio of geometric least squares means (point estimate) [1]: 0.909
Cmax ratio of geometric least squares means (point estimate) [1]: 1.031
decrease of systemic exposure [1]: approximately 9%
increase of maximal exposure [1]: approximately 3%
Tmax ([2]; carbidopa-levodopa alone): 2.5 h
Tmax ([2]; coadministered with Compound A): 2 h
half-life ([2]; geometric mean t1/2, carbidopa, both treatment conditions): 120 to 138 min

SMILES: COc1c(N2C[C@@H]3CCCN[C@@H]3C2)c(F)cc2c(=O)c(C(=O)O)cn(C3CC3)c12 [Moxifloxacin, moxifloxacin, reference compound]
Grade 3 (severe) TEAE considered related [3]: hypersensitivity
effect on ΔΔQTcF (concentration-QTc analysis) [4]: above 5 msec

SMILES: CC(C)(NC(=O)O[C@@H]1CN2CCC1CC2)c1csc(-c2ccc(F)cc2)n1 [venglustat]
impact on slowing the progression of the condition [7]: no impact on slowing the progression of the condition

SMILES: N[C@@H](Cc1ccc(O)c(O)c1)C(=O)O [Levodopa, levodopa]
AUC0-inf ratio of geometric least squares means (point estimate) [1]: 1.035
AUC0-last ratio of geometric least squares means (point estimate) [1]: 1.048
Cmax ratio of geometric least squares means (point estimate) [1]: 1.061
Median Tmax [1]: 30 min
AUC(0-t) [8]: 1534 ng·h/mL
Tmax [8]: 1.00 h
t1/2 [9]: 2.26 h
half-life (clinical [10]): 102 min
half-life (clinical [11]): 101 min
Tmax (clinical [12]): 46.2 min
AUC(0-t) (clinical [12]; AUC0-t): 1940 ng·h/mL
